These are literature values, as cited in patent publication US20190316065A1, “NATURALLY-DERIVED ANTIMICROBIAL CLEANING SOLUTIONS” (ProNatural Brands LLC, priority 2018, published 2019).

Structures are written as SMILES.

For this data set the following is noted: standard pKa.

For the compound `O=C(O)CC(O)(CC(=O)O)C(=O)O` [citric acid], the pKa1 is on record as 3.1, the pKa2 was 4.8 and the pKa3 entry was “≈ 6.4”.
